Laboratory results published in ChEMBL document CHEMBL4507278 (2021).

Columns and labels:
[1] = molecular target: Calcium/calmodulin-dependent protein kinase type IV (Homo sapiens) (UniProt Q16566); conditions: Compound concentration 1000.0 nM
[2] = test system: Receptor-type tyrosine-protein kinase FLT3 (Homo sapiens), P36888 [R834Q]; conditions: Compound concentration 1000.0 nM
[3] = molecular target: Macrophage-stimulating protein receptor (Homo sapiens) (UniProt Q04912); conditions: Compound concentration 1000.0 nM
[4] = molecular target: TGF-beta receptor type-1 (Homo sapiens) (UniProt P36897); conditions: Compound concentration 1000.0 nM
[5] = molecular target: Phosphatidylinositol 4-phosphate 5-kinase type-1 alpha (Homo sapiens) (UniProt Q99755); conditions: Compound concentration 1000.0 nM
[6] = molecular target: Testis-specific serine/threonine-protein kinase 1 (Homo sapiens) (UniProt Q9BXA7); conditions: Compound concentration 1000.0 nM
[7] = molecular target: Cyclin-dependent kinase 4 (Homo sapiens) (UniProt P11802); conditions: Compound concentration 1000.0 nM
[8] = molecular target: Serine/threonine-protein kinase VRK2 (Homo sapiens) (UniProt Q86Y07); conditions: Compound concentration 1000.0 nM
[9] = molecular target: Death-associated protein kinase 2 (Homo sapiens) (UniProt Q9UIK4); conditions: Compound concentration 1000.0 nM
[10] = molecular target: Maternal embryonic leucine zipper kinase (Homo sapiens) (UniProt Q14680); conditions: Compound concentration 1000.0 nM
[11] = molecular target: Serine/threonine-protein kinase MRCK beta (Homo sapiens) (UniProt Q9Y5S2); conditions: Compound concentration 1000.0 nM
[12] = molecular target: Hormonally up-regulated neu tumor-associated kinase (Homo sapiens) (UniProt P57058); conditions: Compound concentration 1000.0 nM
[13] = molecular target: Interleukin-1 receptor-associated kinase 1 (Homo sapiens) (UniProt P51617); conditions: Compound concentration 1000.0 nM
[14] = molecular target: Phosphatidylinositol 5-phosphate 4-kinase type-2 beta (Homo sapiens) (UniProt P78356); conditions: Compound concentration 1000.0 nM
[15] = molecular target: Serine/threonine-protein kinase ULK3 (Homo sapiens) (UniProt Q6PHR2); conditions: Compound concentration 1000.0 nM
[16] = molecular target: Serine/threonine-protein kinase RIO3 (Homo sapiens) (UniProt O14730); conditions: Compound concentration 1000.0 nM
[17] = test system: Serine/threonine-protein kinase B-raf (Homo sapiens), P15056 [V600E]; conditions: Compound concentration 1000.0 nM
[18] = test system: Phosphatidylinositol 4,5-bisphosphate 3-kinase catalytic subunit alpha isoform (Homo sapiens), P42336 [E542K]; conditions: Compound concentration 1000.0 nM
[19] = molecular target: Fibroblast growth factor receptor 1 (Homo sapiens) (UniProt P11362); conditions: Compound concentration 1000.0 nM
[20] = molecular target: Mitogen-activated protein kinase kinase kinase 5 (Homo sapiens) (UniProt Q99683); conditions: Compound concentration 1000.0 nM
[21] = molecular target: Serine/threonine-protein kinase pim-3 (Homo sapiens) (UniProt Q86V86); conditions: Compound concentration 1000.0 nM
[22] = molecular target: Homeodomain-interacting protein kinase 2 (Homo sapiens) (UniProt Q9H2X6); conditions: Compound concentration 1000.0 nM
[23] = test system: ALK tyrosine kinase receptor (Homo sapiens), Q9UM73 [L1196M]; conditions: Compound concentration 1000.0 nM
[24] = molecular target: Calcium/calmodulin-dependent protein kinase type II subunit delta (Homo sapiens) (UniProt Q13557); conditions: Compound concentration 1000.0 nM
[25] = molecular target: Fibroblast growth factor receptor 3 (Homo sapiens) (UniProt P22607); conditions: Compound concentration 1000.0 nM
[26] = molecular target: Death-associated protein kinase 3 (Homo sapiens) (UniProt O43293); conditions: Compound concentration 1000.0 nM
[27] = molecular target: Mitogen-activated protein kinase kinase kinase kinase 5 (Homo sapiens) (UniProt Q9Y4K4); conditions: Compound concentration 1000.0 nM
[28] = molecular target: Interleukin-1 receptor-associated kinase 3 (Homo sapiens) (UniProt Q9Y616); conditions: Compound concentration 1000.0 nM
[29] = molecular target: cGMP-dependent protein kinase 2 (Homo sapiens) (UniProt Q13237); conditions: Compound concentration 1000.0 nM
[30] = molecular target: Dual serine/threonine and tyrosine protein kinase (Homo sapiens) (UniProt Q6XUX3); conditions: Compound concentration 1000.0 nM
[31] = molecular target: Ephrin type-B receptor 6 (Homo sapiens) (UniProt O15197); conditions: Compound concentration 1000.0 nM
[32] = molecular target: Mitogen-activated protein kinase kinase kinase 10 (Homo sapiens) (UniProt Q02779); conditions: Compound concentration 1000.0 nM
[33] = molecular target: Discoidin domain-containing receptor 2 (Homo sapiens) (UniProt Q16832); conditions: Compound concentration 1000.0 nM
[34] = molecular target: Mitogen-activated protein kinase 11 (Homo sapiens) (UniProt Q15759); conditions: Compound concentration 1000.0 nM
[35] = molecular target: Cyclin-dependent kinase 17 (Homo sapiens) (UniProt Q00537); conditions: Compound concentration 1000.0 nM
[36] = molecular target: Mitogen-activated protein kinase kinase kinase 11 (Homo sapiens) (UniProt Q16584); conditions: Compound concentration 1000.0 nM
[37] = molecular target: T1, 5-hydroxytryptamine receptor 1A (Homo sapiens) (UniProt P08908); conditions: Compound concentration 10.0 uM
T1 sequence (whole entry): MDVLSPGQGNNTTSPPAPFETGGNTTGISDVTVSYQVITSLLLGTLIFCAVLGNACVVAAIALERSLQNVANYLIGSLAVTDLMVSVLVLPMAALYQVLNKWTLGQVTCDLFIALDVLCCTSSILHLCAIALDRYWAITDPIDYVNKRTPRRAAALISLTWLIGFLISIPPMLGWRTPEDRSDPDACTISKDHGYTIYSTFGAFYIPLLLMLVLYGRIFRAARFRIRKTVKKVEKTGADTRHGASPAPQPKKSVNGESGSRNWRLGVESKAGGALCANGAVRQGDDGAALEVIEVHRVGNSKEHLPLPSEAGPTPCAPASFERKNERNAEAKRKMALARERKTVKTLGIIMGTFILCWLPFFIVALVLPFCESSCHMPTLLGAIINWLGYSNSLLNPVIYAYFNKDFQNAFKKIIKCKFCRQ

[38] = molecular target: Tyrosine-protein kinase ITK/TSK (Homo sapiens) (UniProt Q08881); conditions: Compound concentration 1000.0 nM
[39] = test system: Receptor-type tyrosine-protein kinase FLT3 (Homo sapiens), P36888 [N841I]; conditions: Compound concentration 1000.0 nM

Sequence of cGMP-dependent protein kinase 2 (Homo sapiens) (Q13237 whole entry): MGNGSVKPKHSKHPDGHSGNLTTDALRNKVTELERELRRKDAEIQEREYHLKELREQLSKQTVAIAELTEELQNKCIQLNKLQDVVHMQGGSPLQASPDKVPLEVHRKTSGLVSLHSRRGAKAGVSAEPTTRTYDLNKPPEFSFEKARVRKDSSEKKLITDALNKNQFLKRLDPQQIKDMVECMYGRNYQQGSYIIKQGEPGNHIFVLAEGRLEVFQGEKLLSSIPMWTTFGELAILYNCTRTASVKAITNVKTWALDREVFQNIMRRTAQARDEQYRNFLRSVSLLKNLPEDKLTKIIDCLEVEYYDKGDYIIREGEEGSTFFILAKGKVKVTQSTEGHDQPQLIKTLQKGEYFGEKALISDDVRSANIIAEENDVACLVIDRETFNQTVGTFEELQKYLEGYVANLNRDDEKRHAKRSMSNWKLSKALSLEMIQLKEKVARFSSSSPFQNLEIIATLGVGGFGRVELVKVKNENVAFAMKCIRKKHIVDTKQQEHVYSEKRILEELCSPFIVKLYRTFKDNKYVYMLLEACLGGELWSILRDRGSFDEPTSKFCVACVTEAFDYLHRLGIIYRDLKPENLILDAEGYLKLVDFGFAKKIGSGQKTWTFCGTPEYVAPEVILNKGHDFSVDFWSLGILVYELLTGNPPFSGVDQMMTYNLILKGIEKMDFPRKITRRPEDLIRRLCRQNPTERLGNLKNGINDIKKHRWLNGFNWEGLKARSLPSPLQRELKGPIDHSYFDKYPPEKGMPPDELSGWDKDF
Sequence of Maternal embryonic leucine zipper kinase (Homo sapiens) (Q14680 whole entry, looked up): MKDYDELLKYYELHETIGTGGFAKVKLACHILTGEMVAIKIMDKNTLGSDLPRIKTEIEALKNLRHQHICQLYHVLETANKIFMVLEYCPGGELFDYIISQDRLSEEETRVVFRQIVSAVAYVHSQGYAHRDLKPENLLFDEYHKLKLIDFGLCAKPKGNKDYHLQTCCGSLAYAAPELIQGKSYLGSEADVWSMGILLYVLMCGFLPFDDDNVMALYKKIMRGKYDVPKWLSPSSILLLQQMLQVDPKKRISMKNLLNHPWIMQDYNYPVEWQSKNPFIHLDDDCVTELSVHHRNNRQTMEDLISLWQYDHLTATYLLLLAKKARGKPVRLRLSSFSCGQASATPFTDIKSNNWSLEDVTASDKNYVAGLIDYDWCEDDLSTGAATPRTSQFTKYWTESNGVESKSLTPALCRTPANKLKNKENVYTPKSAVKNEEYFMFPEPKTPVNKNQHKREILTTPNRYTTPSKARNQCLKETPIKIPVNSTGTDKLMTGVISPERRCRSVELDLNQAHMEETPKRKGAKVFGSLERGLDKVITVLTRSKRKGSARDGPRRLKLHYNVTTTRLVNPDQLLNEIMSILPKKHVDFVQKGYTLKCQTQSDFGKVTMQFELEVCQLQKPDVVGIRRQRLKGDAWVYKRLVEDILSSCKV
Sequence of Serine/threonine-protein kinase ULK3 (Homo sapiens) (Q6PHR2 whole entry): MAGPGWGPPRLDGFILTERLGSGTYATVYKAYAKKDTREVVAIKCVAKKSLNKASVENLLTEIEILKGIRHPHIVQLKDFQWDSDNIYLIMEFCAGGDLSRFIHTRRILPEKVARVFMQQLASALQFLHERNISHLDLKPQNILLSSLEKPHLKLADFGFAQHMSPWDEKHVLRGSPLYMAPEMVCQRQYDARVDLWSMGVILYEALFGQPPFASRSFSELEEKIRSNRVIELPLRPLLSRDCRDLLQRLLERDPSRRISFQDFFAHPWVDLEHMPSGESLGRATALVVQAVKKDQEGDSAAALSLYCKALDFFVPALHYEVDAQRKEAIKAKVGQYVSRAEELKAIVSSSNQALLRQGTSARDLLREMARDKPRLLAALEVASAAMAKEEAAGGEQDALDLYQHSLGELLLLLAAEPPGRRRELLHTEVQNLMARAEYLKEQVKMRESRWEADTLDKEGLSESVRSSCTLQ
Sequence of Phosphatidylinositol 4-phosphate 5-kinase type-1 alpha (Homo sapiens) (Q99755 whole entry): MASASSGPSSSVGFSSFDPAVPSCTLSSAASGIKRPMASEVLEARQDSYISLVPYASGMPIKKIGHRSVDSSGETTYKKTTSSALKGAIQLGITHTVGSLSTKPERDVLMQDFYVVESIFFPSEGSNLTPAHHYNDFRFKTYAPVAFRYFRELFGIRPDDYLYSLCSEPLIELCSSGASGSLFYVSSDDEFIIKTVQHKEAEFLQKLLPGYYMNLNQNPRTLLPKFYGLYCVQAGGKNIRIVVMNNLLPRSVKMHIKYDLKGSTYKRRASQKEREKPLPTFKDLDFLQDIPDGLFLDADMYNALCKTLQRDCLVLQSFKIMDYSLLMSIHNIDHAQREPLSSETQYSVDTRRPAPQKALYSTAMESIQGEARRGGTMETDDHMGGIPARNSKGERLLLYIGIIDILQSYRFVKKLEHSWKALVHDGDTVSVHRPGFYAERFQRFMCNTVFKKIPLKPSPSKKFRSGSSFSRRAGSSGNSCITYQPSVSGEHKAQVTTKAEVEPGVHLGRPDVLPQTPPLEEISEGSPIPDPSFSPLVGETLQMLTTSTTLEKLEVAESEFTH
Sequence of Cyclin-dependent kinase 17 (Homo sapiens) (Q00537 whole entry, looked up): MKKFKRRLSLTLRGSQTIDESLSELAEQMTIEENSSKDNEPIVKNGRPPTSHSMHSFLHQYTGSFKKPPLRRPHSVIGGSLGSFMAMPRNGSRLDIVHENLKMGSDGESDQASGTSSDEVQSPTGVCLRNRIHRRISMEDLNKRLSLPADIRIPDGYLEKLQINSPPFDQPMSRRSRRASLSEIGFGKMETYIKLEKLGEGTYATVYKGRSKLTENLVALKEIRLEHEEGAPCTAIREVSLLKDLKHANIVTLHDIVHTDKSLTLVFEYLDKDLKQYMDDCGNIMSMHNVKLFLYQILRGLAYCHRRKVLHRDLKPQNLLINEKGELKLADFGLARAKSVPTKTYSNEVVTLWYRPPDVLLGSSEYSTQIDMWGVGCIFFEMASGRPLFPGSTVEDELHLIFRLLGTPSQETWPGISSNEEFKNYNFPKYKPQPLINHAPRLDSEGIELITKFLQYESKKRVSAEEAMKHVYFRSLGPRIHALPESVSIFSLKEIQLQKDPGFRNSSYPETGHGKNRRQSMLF
Sequence of Mitogen-activated protein kinase kinase kinase kinase 5 (Homo sapiens) (Q9Y4K4 whole entry, looked up): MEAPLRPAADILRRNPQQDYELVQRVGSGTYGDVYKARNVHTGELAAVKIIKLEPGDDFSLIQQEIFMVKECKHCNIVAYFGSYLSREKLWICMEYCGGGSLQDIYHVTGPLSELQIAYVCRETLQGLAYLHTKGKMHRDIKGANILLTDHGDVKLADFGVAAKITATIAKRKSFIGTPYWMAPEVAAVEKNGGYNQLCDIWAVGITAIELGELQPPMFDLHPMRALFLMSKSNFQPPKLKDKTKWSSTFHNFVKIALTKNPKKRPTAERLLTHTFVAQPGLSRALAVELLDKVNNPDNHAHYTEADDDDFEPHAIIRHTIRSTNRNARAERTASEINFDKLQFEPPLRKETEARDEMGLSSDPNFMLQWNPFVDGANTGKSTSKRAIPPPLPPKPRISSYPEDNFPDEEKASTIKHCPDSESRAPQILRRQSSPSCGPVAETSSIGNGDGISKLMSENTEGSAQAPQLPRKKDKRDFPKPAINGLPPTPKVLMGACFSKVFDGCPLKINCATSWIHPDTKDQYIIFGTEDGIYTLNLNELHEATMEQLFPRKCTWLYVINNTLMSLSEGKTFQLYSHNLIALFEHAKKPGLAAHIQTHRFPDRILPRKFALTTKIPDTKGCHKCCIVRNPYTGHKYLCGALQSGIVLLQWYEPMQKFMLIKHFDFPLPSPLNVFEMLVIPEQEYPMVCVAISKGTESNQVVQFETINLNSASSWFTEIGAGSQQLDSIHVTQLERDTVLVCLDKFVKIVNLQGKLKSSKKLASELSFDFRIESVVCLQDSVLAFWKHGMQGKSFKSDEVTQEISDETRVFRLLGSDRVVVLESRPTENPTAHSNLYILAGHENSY
Sequence of Death-associated protein kinase 2 (Homo sapiens) (Q9UIK4 whole entry, looked up): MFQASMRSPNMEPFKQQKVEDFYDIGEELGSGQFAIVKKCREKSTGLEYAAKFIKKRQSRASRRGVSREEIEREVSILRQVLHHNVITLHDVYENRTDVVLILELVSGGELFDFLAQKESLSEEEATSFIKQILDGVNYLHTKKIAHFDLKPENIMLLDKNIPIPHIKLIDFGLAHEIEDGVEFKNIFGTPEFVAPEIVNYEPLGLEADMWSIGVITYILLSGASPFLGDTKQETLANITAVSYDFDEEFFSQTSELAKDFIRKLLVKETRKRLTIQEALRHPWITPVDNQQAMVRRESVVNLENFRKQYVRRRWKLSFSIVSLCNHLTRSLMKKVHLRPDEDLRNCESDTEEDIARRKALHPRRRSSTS
Sequence of Cyclin-dependent kinase 4 (Homo sapiens) (P11802 whole entry): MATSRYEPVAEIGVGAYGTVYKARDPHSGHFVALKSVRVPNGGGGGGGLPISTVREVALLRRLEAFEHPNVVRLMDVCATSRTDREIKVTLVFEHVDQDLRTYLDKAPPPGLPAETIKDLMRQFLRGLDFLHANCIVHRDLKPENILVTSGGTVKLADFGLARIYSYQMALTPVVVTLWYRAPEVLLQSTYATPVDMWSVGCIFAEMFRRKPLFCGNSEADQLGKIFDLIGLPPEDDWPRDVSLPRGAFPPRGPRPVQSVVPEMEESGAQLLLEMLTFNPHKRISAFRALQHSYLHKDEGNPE
Sequence of Phosphatidylinositol 5-phosphate 4-kinase type-2 beta (Homo sapiens) (P78356 whole entry): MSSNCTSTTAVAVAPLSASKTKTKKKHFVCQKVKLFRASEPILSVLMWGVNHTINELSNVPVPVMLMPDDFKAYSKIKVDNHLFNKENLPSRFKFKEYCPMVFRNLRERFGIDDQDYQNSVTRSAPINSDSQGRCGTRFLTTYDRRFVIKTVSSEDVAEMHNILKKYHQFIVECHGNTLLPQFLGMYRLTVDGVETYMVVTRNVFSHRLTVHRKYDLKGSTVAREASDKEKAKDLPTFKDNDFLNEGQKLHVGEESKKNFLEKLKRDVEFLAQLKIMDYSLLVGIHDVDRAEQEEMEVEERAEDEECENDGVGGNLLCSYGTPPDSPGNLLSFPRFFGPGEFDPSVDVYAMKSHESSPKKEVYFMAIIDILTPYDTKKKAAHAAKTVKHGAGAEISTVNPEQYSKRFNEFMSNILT

CS(=O)(=O)NCC[C@H](NC(=O)c1cncc2c1cnn2-c1ccc(F)cc1)c1ccnc(S(C)(=O)=O)c1 [BI 9307]
inactive: residual activity [1] 100% | residual activity [2] 79% | residual activity [3] 99% | residual activity [4] 100% | residual activity [5] 100% | residual activity [6] 99% | residual activity [7] 100% | residual activity [8] 100% | residual activity [9] 100% | residual activity [10] 99% | residual activity [11] 95% | residual activity [12] 100% | residual activity [13] 100% | residual activity [14] 100% | residual activity [15] 100% | residual activity [16] 100% | residual activity [17] 100% | residual activity [18] 66% | residual activity [19] 87% | residual activity [20] 96% | residual activity [21] 100% | residual activity [22] 100% | residual activity [23] 100% | residual activity [24] 100% | residual activity [25] 100% | residual activity [26] 100% | residual activity [27] 83% | residual activity [28] 89% | residual activity [29] 87% | residual activity [30] 98% | residual activity [31] 100% | residual activity [32] 75% | residual activity [33] 100% | residual activity [34] 100% | residual activity [35] 100% | residual activity [36] 100% | inhibition [37] 13.3% | residual activity [38] 99% | residual activity [39] 91%

CS(=O)(=O)c1cc(C2(NC(=O)c3cncc4c3cnn4-c3ccc(F)cc3)CC2)ccn1 [BI 639667]
inactive: residual activity [1] 100% | residual activity [2] 75% | residual activity [3] 83% | residual activity [4] 100% | residual activity [5] 100% | residual activity [6] 63% | residual activity [7] 100% | residual activity [8] 100% | residual activity [9] 96% | residual activity [10] 100% | residual activity [11] 100% | residual activity [12] 100% | residual activity [13] 87% | residual activity [14] 100% | residual activity [15] 100% | residual activity [16] 100% | residual activity [17] 94% | residual activity [18] 80% | residual activity [19] 95% | residual activity [20] 97% | residual activity [21] 100% | residual activity [22] 100% | residual activity [23] 100% | residual activity [24] 76% | residual activity [25] 100% | residual activity [26] 98% | residual activity [27] 98% | residual activity [28] 59% | residual activity [29] 89% | residual activity [30] 70% | residual activity [31] 100% | residual activity [32] 99% | residual activity [33] 100% | residual activity [34] 100% | residual activity [35] 79% | residual activity [36] 100% | inhibition [37] -9.71% | residual activity [38] 89% | residual activity [39] 100%
